{"source": "paper PMC6961345", "about": "(Antiviral Chemistry & Chemotherapy, 2018)", "test_system": "A/Georgia/20/2006 (H1N1) H275Y", "type": "cell-based, influenza A virus", "note": "Several values for one entry are separate records, joined by “and”; a condition that tells them apart may be missing. Identical values can stand only once."}
{"smiles": "C[n+]1ccc(C(=O)NCc2ccccc2)cc1", "note": "[enisamium, N-methyl-4-benzylcarbamidopyridinium]", "values": [{"measurement": "EC90", "result": "144 µM and 286 µM"}]}
